Data: ChEMBL document CHEMBL4428109, “Structure-activity relationship studies of non-carboxylic acid peroxisome proliferator-activated receptor α/δ (PPARα/δ) dual agonists” (Bioorg Med Chem, 2016)
The source made the active and inactive calls. No cut-off for these calls is given here.

Columns and labels:
[1] = molecular target: T1, Peroxisome proliferator-activated receptor gamma (Homo sapiens) (UniProt P37231); assay: Agonist activity at N-terminal Gal4 fused human PPARgamma LBD transfected in HEK293 cells at < 10 uM after 24 hrs by luciferase reporter gene assay; type: cell-based
T1 sequence (whole entry): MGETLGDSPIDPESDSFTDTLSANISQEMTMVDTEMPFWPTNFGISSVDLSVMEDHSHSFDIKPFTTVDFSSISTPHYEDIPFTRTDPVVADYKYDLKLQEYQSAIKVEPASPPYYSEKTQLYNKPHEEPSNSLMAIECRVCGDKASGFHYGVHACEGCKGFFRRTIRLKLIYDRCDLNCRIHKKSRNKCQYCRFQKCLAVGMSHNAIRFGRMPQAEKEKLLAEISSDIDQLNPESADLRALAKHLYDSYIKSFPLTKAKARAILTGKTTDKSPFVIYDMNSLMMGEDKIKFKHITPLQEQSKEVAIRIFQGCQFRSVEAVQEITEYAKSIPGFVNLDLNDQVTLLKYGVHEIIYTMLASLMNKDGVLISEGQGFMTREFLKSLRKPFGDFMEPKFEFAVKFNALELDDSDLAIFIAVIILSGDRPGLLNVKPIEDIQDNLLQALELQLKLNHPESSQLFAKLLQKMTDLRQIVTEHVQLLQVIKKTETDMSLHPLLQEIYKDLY

[2] = molecular target: T2, Peroxisome proliferator-activated receptor delta (Homo sapiens, UniProt Q03181); assay: Agonist activity at N-terminal Gal4 fused human PPARdelta LBD transfected in HEK293 cells after 24 hrs by luciferase reporter gene assay; type: cell-based
T2 sequence (Q03181 whole entry): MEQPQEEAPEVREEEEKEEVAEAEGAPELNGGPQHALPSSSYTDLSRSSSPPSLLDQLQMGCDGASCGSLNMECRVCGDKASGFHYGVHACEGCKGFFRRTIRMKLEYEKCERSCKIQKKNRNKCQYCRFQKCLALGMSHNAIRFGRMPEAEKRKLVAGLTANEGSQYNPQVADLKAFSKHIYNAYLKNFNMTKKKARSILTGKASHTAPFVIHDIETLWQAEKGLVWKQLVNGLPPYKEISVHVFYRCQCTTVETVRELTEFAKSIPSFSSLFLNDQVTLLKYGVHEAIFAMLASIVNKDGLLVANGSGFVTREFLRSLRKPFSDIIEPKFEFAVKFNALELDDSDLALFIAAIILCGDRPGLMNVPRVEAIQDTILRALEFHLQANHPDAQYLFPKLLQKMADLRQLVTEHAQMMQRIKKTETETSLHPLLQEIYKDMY

[3] = molecular target: T3, Peroxisome proliferator-activated receptor delta (Homo sapiens) (UniProt Q03181); assay: Agonist activity at N-terminal Gal4 fused human PPARdelta LBD transfected in HEK293 cells after 24 hrs by luciferase reporter gene assay relative to GW501516; type: cell-based
T3 sequence (whole entry): T2 sequence (Q03181 whole entry)

[4] = molecular target: T4, Retinoic acid receptor RXR-beta (Homo sapiens) (UniProt P28702); assay: Agonist activity at RXRbeta (unknown origin) at < 20 uM
T4 sequence (whole entry): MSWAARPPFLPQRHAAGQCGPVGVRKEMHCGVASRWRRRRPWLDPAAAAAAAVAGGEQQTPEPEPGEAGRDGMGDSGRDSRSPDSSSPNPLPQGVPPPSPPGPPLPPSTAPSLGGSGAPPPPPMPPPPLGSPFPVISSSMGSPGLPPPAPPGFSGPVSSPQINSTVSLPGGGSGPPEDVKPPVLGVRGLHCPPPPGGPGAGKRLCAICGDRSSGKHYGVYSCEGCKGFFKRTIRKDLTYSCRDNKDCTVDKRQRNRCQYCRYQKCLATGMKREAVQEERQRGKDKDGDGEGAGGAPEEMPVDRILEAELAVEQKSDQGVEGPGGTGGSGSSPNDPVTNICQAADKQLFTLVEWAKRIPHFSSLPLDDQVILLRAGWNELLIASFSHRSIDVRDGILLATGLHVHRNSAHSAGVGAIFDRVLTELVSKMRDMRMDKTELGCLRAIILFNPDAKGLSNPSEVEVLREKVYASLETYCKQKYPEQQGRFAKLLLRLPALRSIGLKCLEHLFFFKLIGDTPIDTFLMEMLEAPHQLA

[5] = molecular target: T5, Oxysterols receptor LXR-alpha (Homo sapiens) (UniProt Q13133); assay: Agonist activity at LXRalpha (unknown origin) at < 20 uM
T5 sequence (whole entry): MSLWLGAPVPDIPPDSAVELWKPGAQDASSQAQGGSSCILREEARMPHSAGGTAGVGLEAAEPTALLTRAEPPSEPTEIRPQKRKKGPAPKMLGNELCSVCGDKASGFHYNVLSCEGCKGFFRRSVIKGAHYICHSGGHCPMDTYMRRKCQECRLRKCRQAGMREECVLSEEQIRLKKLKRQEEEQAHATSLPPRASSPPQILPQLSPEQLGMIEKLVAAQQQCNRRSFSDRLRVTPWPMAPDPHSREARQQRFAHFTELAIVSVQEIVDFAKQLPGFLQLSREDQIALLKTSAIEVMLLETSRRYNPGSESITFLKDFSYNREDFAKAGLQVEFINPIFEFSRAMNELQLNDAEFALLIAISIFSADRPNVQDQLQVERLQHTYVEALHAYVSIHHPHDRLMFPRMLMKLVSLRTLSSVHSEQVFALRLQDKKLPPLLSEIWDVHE

CC(=O)NC(C)c1nc(-c2ccc(Oc3ccc(OCc4ccccc4)cc3)cc2)no1 (stereo not given)
Activity [1]: inactive
EC50 [2]: 46 nM
Emax [3]: 5 to 10%
Activity [4]: inactive
Activity [5]: inactive
